Data as given in US5525626A (priority 1989, dated 1996).

Columns and labels:
bladder tumor cells = assay: photometric cell count / mitochondrial activity; format: cell-based; settings: 20 hours, increasing concentrations
Method: (§1) Subsequently the cell count was photometrically determined according to Alley M. C. et al., Cancer Research 48, 589-601 (1988). In the process, a colorant is added to the cells that have been mixed with medium, the colorant being so converted by cells with mitochondrial activity that a photometric determination of the cell count is possible.

[1] = system: erythroleukemic cells (K 562); assay: photometric cell count / mitochondrial activity; format: cell-based; settings: 20 hours, increasing concentrations
Method: as §1

MCF 7 cells = assay: growth inhibition of breast cancer cells (Table 1, Example 2); format: cell-based, human
Excerpt: The MCF 7 cell line from breast cancer was cultivated in DMEM-S 10, enriched with 10% FCS, for 10 days in the usual way.

PC-3 cells = assay: cell growth, combination with TNF; format: cell-based; settings: 7-OH-1,2-BP 500 μM/ml; TNF 1 nM/ml; combination 500 μM/1 nM; 4 days; 3×10^4 cells/well; control 18.58 + 1.05
Excerpt: (§5) Various cell lines (DU-145, PC-3 and LNCaP) from prostate carcinomas were used.
(§6) Initial cell count: 3×10^4 cells/well; exposure period: DU-145, PC-3: 4 days; LNCaP: 6 days

TP 242 MG cells = assay: growth curve, glioblastoma cells; format: cell-based, human; settings: for Cell count: 25 μM/ml
Method: (§2) The neuroblastoma cell line and the three glioblastoma cell lines were cultivated in Ham's F10 medium enriched with 10% fetal calf serum (FCS) and the usual quantity of penicillin, streptomycin (Pen/Strep) and glutamine. The epidermoidal cell line was cultivated in modified Eagle's Medium (MEM), likewise enriched with 10% (FCS) and the usual quantity of glutamine and Pen/Strep.
(§3) In each case 5×10^4 cells were plated out in T25 bottles, the untreated cells being incubated in analogous conditions as control. The cell count was microscopically determined after 3, 5, 7, 10 and 12 days.

TP 336 MG cells = assay: growth curve, glioblastoma cells; format: cell-based, human; settings: for Cell count: 10 μM/ml
Method: as §2, §3

U 178 MG cells = assay: growth curve, glioblastoma cells; format: cell-based, human; settings: for Cell count: 25 μM/ml
Method: as §2, §3

LNCap cells [2] = assay: growth inhibition of prostatic carcinoma cells (Table 1); format: cell-based, human; settings: 250 μmol/ml, after 10 days
LNCap cells [3] = assay: cell growth in combination with testosterone; format: cell-based, human
PDFG-B gene = assay: transcription (mRNA level); format: cell-based; settings: Seliger et al., unpublished results; FIG. 8
Excerpt: (§4) In connection with the neoplastic transformation and increased proliferation rate of glioblastoma cells, two autocrinic loops, the EGF and the PDGF system, are discussed.

PDFG-A gene = assay: transcription (mRNA level); format: cell-based; settings: Seliger et al., unpublished results; FIG. 8
Excerpt: as §4

LNCap cells [4] = assay: cell growth, combination with TNF; format: cell-based, human; settings: 7-OH-1,2-BP 500 μM/ml; TNF 1 nM/ml; combination 500 μM/1 nM; 6 days; 3×10^4 cells/well; control 61.40 + 3.70
Excerpt: as §5, §6

[5] = Homo sapiens, 288 h, 25 μM/ml (Table 2), read-out: % growth inhibition compared with control after 12 days

## O=c1ccc2ccc(O)cc2o1 [7-OH-1,2-BP, 7-hydroxy-1,2-benzopyrone]
Bladder tumor cells
  inhibition of mitochondrial activity: a dosage-related inhibition of the mitochondrial activity occurs
[1]
  inhibition of mitochondrial activity: a dosage-related inhibition of the mitochondrial activity occurs
MCF 7 cells; 200 μmol/ml, after 10 days
  % Growth inhibition compared with control: 64%
MCF 7 cells; Example 2, FIG. 1
  cytostatic effect on breast cancer cells: clearly show the cytostatic effect
PC-3 cells
  Cell growth: 11.51 + 0.63
TP 242 MG cells; after 3 days, control 10
  Cell count: 4 × 10^4
TP 242 MG cells; after 5 days, control 15
  Cell count: 6 × 10^4
TP 242 MG cells; after 7 days, control 23
  Cell count: 8 × 10^4
TP 242 MG cells; after 10 days, control 49
  Cell count: 10 × 10^4
TP 242 MG cells; after 12 days, control 57
  Cell count: 12 × 10^4
TP 242 MG cells; [5]
  inhibition at 25 µM: 79%
TP 336 MG cells; after 3 days, control 13
  Cell count: 7 × 10^4
TP 336 MG cells; after 5 days, control 25
  Cell count: 11 × 10^4
TP 336 MG cells; after 7 days, control 39
  Cell count: 22 × 10^4
TP 336 MG cells; after 10 days, control 34
  Cell count: 18 × 10^4
TP 336 MG cells; after 12 days, control 45
  Cell count: 18 × 10^4
TP 336 MG cells; Homo sapiens, 288 h, 10 μM/ml (Table 2), read-out: % growth inhibition compared with control after 12 days
  inhibition at 10 µM: 60%
U 178 MG cells; after 3 days, control 23
  Cell count: 15 × 10^4
U 178 MG cells; after 5 days, control 57
  Cell count: 13 × 10^4
U 178 MG cells; after 7 days, control 84
  Cell count: 26 × 10^4
U 178 MG cells; [5]
  inhibition at 25 µM: 74%
LNCap cells [2]
  % Growth inhibition compared with control: 66%
LNCap cells [3]; 500 μM 7-OH-1,2-BP/ml medium combined with 20 nM testosterone
  inhibition of cell growth: virtually complete inhibition of cell growth
LNCap cells [3]; for example testosterone
  increase of growth inhibition by additional hormone therapy: can be increased by additional hormone therapy
PDFG-B gene
  transcription of gene coding for PDFG-B (mRNA level): inhibited
PDFG-A gene
  transcription of gene coding for PDFG-A (mRNA level): inhibited
LNCap cells [4]
  Cell growth: 11.0 + 1.10
